Test results as given in paper PMC11778240, “Synthesis and preclinical evaluation of tigilanol tiglate analogs as latency-reversing agents for the eradication of HIV” (Science Advances, 2025).

Legend:
NF-κB pathway = assay: NF-κB activation assay, A549 cells with SEAP reporter; assay type: cell-based, Human; conditions: for NF-κB activation (optical density, 630 nm): 24 hours after dosing; for NF-κB activation (optical density, 630 nm) / NF-κB activation in words: A549 cells; for NF-κB activation in words: 50 and/or 500 nM
Excerpt: As a high-throughput method of screening compounds for their ability to get into cells and activate immunological pathways related to HIV latency reversal ([46], [70]), we conducted an NF-κB reporter assay using A549 cells stably integrated with a secreted embryonic alkaline phosphatase reporter under the control of a promoter fused to five NF-κB binding sites (Fig. 7B) ([48], [70], [71]).
Human A549-Dual™ Cells supplied by InvivoGen (Cat. code a549d-nfis) and CHO-K1 cells were passaged when about 90% confluency was reached (approximately every three days). With each passage, media was aspirated from the cell layer, which was then washed with PBS. Following aspiration of the PBS, cells were detached from the culture flask with 0.25% GibcoTM Trypsin-EDTA and transferred to a 50 mL conical, which was volumed up with complete pre-warmed DMEM (4.5 g/L glucose, 10% FBS, and 1% Pen-Strep-Glutamine (100 X, 50 mg/mL)) or Ham's F-12K (Kaighn's) Medium supplemented with 10% FBS and 1% Pen-Strep (100 X, 50 mg/mL).
This conical was spun down at 1800 rpm for 3 minutes, the supernatant was removed, and cells were resuspended in their respective fresh, pre-warmed media. To count cells, 10 μL of resuspended cells were added to a sterile microcentrifuge tube and mixed with 10 μL of trypan blue after which 10 μL of the mixture was pipetted into a Countess chamber slide. A Countess™ 3 Automated Cell Counter was subsequently utilized to determine cell viability and concentration.
1 x 10^6 cells were seeded with each passage into a T75 culture flask, and cells were incubated at […]
Human A549 lung carcinoma cells (InvivoGen Cat. code a549d-nfis), stably integrated with a secreted embryonic alkaline phosphatase (SEAP) reporter, allow for the activity of the NF-κB pathway to be monitored. The SEAP reporter is under control of the interferon β (IFN-β) minimal promoter, which is fused to five NF-κB binding sites.
5 × 10^4 A549 cells were plated on Corning® 96 Well TC-Treated Microplates (CLS3595) in 180 μl of pre-warmed DMEM (4.5 g/L glucose, 10% heat-inactivated FBS (30 min at 56 ℃), and 1% Pen-Strep-Glutamine (100 X, 50 mg/mL)). Note that if cells were grown in media containing FBS that is not heat-inactivated, media will contain alkaline phosphatase. In this case, all supernatant must thoroughly be aspirated from the cell pellet obtained after centrifugation before resuspending cells in media containing heat inactivated FBS for plating. Following incubation at 37 °C in 5% CO2 for approximately 24 hours to allow for cell adherence onto the 96 well plate, 1.8 μL of each compound dissolved in DMSO was added in quadruplicate to their respective wells to achieve a final compound concentration of 1500 nM, 500 nM, or 50 nM. 1.8 μL of DMSO was added to wells as negative controls while wells treated with EBC-46 served as positive controls. 24 hours following compound addition, 180 μL of QUANTI-BlueTM Solution (InvivoGen Cat. code rep-qbs)- medium containing QB buffer and QB Reagent for detection and quantification of alkaline phosphatase- were added into wells on a new clear flat-bottom 96-well plate. 20 μL of supernatant of either SEAP-expressing cells incubated with compound or SEAP-expressing cells incubated with DMSO only were added to the wells in the new 96-well plate containing QUANTI-BlueTM Solution. Supernatant and QUANTI-BlueTM Solution were incubated at 37 °C in 5% CO2 for approximately an hour and a half. Following incubation, optical density (OD) at 630 nm was measured for each well using a BioTek Synergy H1 microplate reader under normal read speed and with a delay of 100 msec.

J-Lat clone 10.6 cells = assay: J-Lat HIV latency reversal assay (GFP expression); assay type: cell-based, Human; conditions: J-Lat 10.6, 48 hours; for HIV latency reversal in words: ascending concentrations
Excerpt: Having shown that our lead compounds bind cell-free PKC isoforms, enter cells, translocate PKC-GFP fusion proteins, and activate NF-κB transcription factors, we next set out to determine whether our analogs were capable of reversing HIV from latency. We performed in vitro assays using T lymphocyte J-Lat clone 10.6, which contains a latent near full-length replication-incompetent integrated HIV DNA genome ([72]). J-Lat 10.6 lacks two viral genes, env and nef, which encode for the envelope protein and an accessory protein, respectively, and thus cannot initiate a spreading HIV infection. The integrated HIV provirus also encodes a GFP reporter gene, allowing latency reversal to be measured by quantification of GFP expression (fig. S1). […] In this latency reversal assay, we quantified GFP expression 48 hours after compound addition and observed bryostatin 1 to be maximally effective at concentrations of 40 nM or higher with latency reversal in 12% of cells (Fig. 8). Given the efficacy of bryostatin 1 as an LRA ([73], [74]), EBC-46 and many of its analogs tested in this J-Lat assay induced latency reversal in >90% of cells. […] SUW427, an esterase-releasable prodrug of EBC-46, also performed similarly to EBC-46 with a maximum efficacy of latency reversal in >90% of cells at a dose of 250 nM. […] The gradual release of EBC-46 from its prodrug form provides an alternative mode of administration that avoids the bolus effect associated with rapid drug administration ([17]). […] This is consistent with its lack of activity in the NF-κB activation assay and its design as a negative control as it is structurally similar to EBC-46 but unable to bind to the C1 domain of PKC at the concentrations used in this assay as it lacks a complete pharmacophore.
HIV latency reversal in-vitro assay
Human T Lymphocyte J-Lat Full Length Cell Line 10.6 (cat #9849) was obtained through the NIH HIV Reagent Program, Division of AIDS, NIAID, NIH and was contributed to the NIH HIV Reagent Program by Dr. Eric Verdin (70). J-Lat 10.6 cells were plated at 5 × 10^5 cells in 180 μL of RF10 media consisting of RPMI media supplemented with 1% Penicillin/Streptomycin and 10% Fetal Bovine Serum (FBS) in 96 -well U -bottom plates. J -Lat 10.6 cells were then stimulated for 48 hr by adding 20 μL of newly designed and synthesized tigilanol tiglate analogs, PKC modulators (bryostatin 1) as our positive control or med ia only (mock) as our negative control. Our negative control was RF10 media as the tigilanol tiglate analogs were freshly diluted with RF10 prior to plating. The final volume was 200 μL per well. Experiments were performed in three independent biological replicates, each completed in technical duplicates (n = 6). After 48 hr stimulation, 96 - well U -bottom plates were centrifuged at 296 RCF for 7 minutes to pellet cells, which were resusp ended in 200 μL of freshly prepared 2% paraformaldehyde (PFA) in PBS. GF P expression was measured 24 -hours post -fixation using the FITC channel on a LSR Fortessa (BD Biosciences) flow cytometer. Data analysis was conducted with FlowJo software version 10.8.1.

Structure (SMILES)	NF-κB activation (optical density, 630 nm) (NF-κB pathway; 50 nM)	NF-κB activation (optical density, 630 nm) (NF-κB pathway; 500 nM)	NF-κB activation in words (NF-κB pathway; 24 hours)	HIV latency reversal in words (J-Lat clone 10.6 cells)	NF-κB activation, times the basal level (DMSO control) (NF-κB pathway; 50 nM, 24 hours)	latency reversal, % of cells (J-Lat clone 10.6 cells; 40 nM)	maximal latency reversal, % of cells (J-Lat clone 10.6 cells; 250 nM)
CC[C@H](C)C(=O)O[C@@]12[C@H](OC(=O)C3(C)CC3)[C@@H](C)[C@@]3(O)[C@H]([C@@H]1C2(C)C)[C@@H]1O[C@]1(CO)[C@@H](O)[C@]1(O)C(=O)C(C)=C[C@H]13 [SUW413]	0.40 optical density, 630 nm	0.70 optical density, 630 nm	comparable activity to EBC-46 at 50 and 500 nM	required a higher dose than EBC-46 before we detected reversal activity			
C/C=C(\C)C(=O)O[C@@H]1[C@@H](C)[C@@]2(O)[C@H]([C@@H]3C(C)(C)[C@]13OC(=O)c1ccccc1)[C@@H]1O[C@]1(CO)[C@@H](O)[C@]1(O)C(=O)C(C)=C[C@H]12 [SUW428]	0.31 optical density, 630 nm	0.43 optical density, 630 nm	less effective at inducing NF-κB activation than EBC-46 at 500 nM	required a higher dose than EBC-46 before we detected reversal activity			
C/C=C(\C)C(=O)O[C@@H]1[C@@H](C)[C@@]2(O)[C@H]([C@@H]3C(C)(C)[C@]13OC(=O)Cc1cccc3ccccc13)[C@@H]1O[C@]1(CO)[C@@H](O)[C@]1(O)C(=O)C(C)=C[C@H]12 [SUW431]	0.74 optical density, 630 nm	0.65 optical density, 630 nm	strong activation of NF-κB at higher concentrations but with an inverse dose response	effectively activates latent HIV at substantially lower concentrations than EBC-46	approximately three	90 % of cells	
C/C=C(\C)C(=O)O[C@@H]1[C@@H](C)[C@]2(O)[C@@H]3C=C(C)C(=O)[C@@]3(O)[C@H](O)C(CO)=C[C@H]2[C@@H]2C(C)(C)[C@]12OC(=O)[C@@H](C)CC [SUW400]	0.41 optical density, 630 nm	0.67 optical density, 630 nm	comparable activity to EBC-46 at 50 and 500 nM				> 90 % of cells
C/C=C(\C)C(=O)O[C@@H]1[C@@H](C)[C@]2(O)[C@@H]3C=C(C)[C@H](OC(=O)C=C(C)C)[C@@]3(O)[C@H](O)C(CO)=C[C@H]2[C@@H]2C(C)(C)[C@]12OC(=O)[C@@H](C)CC [SUW425]	0.34 optical density, 630 nm	0.47 optical density, 630 nm	minimal NF-κB activation at both 50 and 500 nM	required a higher dose than EBC-46 before we detected reversal activity			
